Experimental data from ChEMBL document CHEMBL1687721, “New drugs against tuberculosis: problems, progress, and evaluation of agents in clinical development” (Antimicrob Agents Chemother, 2009).
≈ marks a conversion by molar mass, not a printed value.

Assays:
Type in all cases: functional
[1] = tested on: Mycobacterium tuberculosis; test: Antimicrobial activity against compound-resistant Mycobacterium tuberculosis
[2] = tested on: Mycobacterium tuberculosis; test: Antimicrobial activity against rifampicin-resistant Mycobacterium tuberculosis
[3] = tested on: Mycobacterium tuberculosis; test: Antimicrobial activity against multiple drug-resistant Mycobacterium tuberculosis

Compound | MIC [1] | MIC [2] | MIC [3]
C[C@]1(COc2ccc(N3CCC(Oc4ccc(OC(F)(F)F)cc4)CC3)cc2)Cn2cc([N+](=O)[O-])nc2O1 | 0.006 µg/mL (≈ 0.0112 µM) |  | 
CO[C@H]1/C=C/O[C@@]2(C)Oc3c(C)c(O)c4c(O)c(c(/C=N/N5CCN(C6CCCC6)CC5)c(O)c4c3C2=O)NC(=O)/C(C)=C\C=C\[C@H](C)[C@H](O)[C@@H](C)[C@@H](O)[C@@H](C)[C@H](OC(C)=O)[C@@H]1C [RIFAPENTINE] |  | 0.02 µg/mL (≈ 0.0228 µM) | 
COc1nc2ccc(Br)cc2cc1[C@@H](c1ccccc1)[C@@](O)(CCN(C)C)c1cccc2ccccc12 [BEDAQUILINE] |  |  | 0.03 µg/mL (≈ 0.054 µM)
COc1c(N2CCNC(C)C2)c(F)cc2c(=O)c(C(=O)O)cn(C3CC3)c12 (stereo unspecified) [GATIFLOXACIN] |  | 0.2 µg/mL (≈ 0.533 µM) | 
CC(C)=CCC/C(C)=C/CNCCNC1C2CC3CC(C2)CC1C3 (stereo unspecified) [SQ109] | 0.16 µg/mL (≈ 0.484 µM) |  | 
O=[N+]([O-])c1cn2c(n1)OC[C@@H](OCc1ccc(OC(F)(F)F)cc1)C2 [PRETOMANID] |  |  | 0.015 µg/mL (≈ 0.0418 µM)
